Molecules are shown by their SMILES.

The source of these data is patent US20240368145A1, “METHODS FOR TREATING CANCER” (IMMUNIC AG, priority 2021, published 2024).

What all share (assay type): cell-based
For assay [1], the system named is NKX3.1 mRNA. The experiment in a line: Expression of AR target genes (qRT-PCR) in 22Rv1: NKX3.1. Conditions: Homo sapiens; 22Rv1, 1 μM, 48h; relative to vehicle control (DMSO). The protocol:
(§1) The prostate cancer cell line 22Rv1 was treated for 48h with 1 μM Example compound 1, 1/1, 2/1, 2/2, 2/3, 2/4, 2/5, 2/6, 2/7, 2/8, 2/9 and 2/10 and reference compounds SR2211 and XY018. RNA was extracted using the RNA isolation kit XS (Macherey-Nagel) and following the manufacture's manual. RNA quantity was measured with the Nanodrop before reverse transcription using Superscript II (Invitrogen #100004925). For the quantitative real-time PCR with SYBR-Green (Qiagen #204074), the following primers were used:
(§2) qRT-PCR was performed using SYBR-Green (Qiagen #204074) reagents in a PCR cycler (Gorbett Research) Rotor Gene RG3000 with the following program: denaturation for 5′ at 95° C.; 40 cycles of 20″ at 95° C. and 15″ at 60° C.″ and at the end of the last cycle, the melting temperature of the products was determined by gradually increasing from 60° C. to 99° C. CT values from all samples were normalized to reference (housekeeping) genes using the mean CT value of the GAPDH and YWHAZ (reference genes). Next the values are put relative to the untreated control (vehicle/DMSO).

In assay [2] the test system is full length AR (AR-FL) mRNA. The assay can be described thus: Androgen receptor RNA level expression (qRT-PCR) in 22Rv1: AR-FL. Conditions: 22Rv1, 1 μM, 48 h; for mrna remaining at 1 µM: Homo sapiens, normalized to untreated control (vehicle/DMSO). The protocol: (§3) The prostate cancer cell line 22Rv1 was treated for 48 h with 1 μM Example compound 1, 1/1, 1/2, 2/1, 2/2, 2/3, 2/4, 2/5, 2/6, 2/7, 2/8, 2/9 and 2/10 and the reference compounds SR2211 and XY018 (Nat. Med. 2016; 22:488). RNA was extracted using the RNA isolation kit XS (Macherey-Nagel) and following the manufacture's manual. RNA quantity was measured with the Nanodrop before reverse transcription using Superscript II (Invitrogen #100004925). For the quantitative real-time PCR with SYBR-Green (Qiagen #204074), the following primers were used: AR forward-ACATCAAGGAACTCGATCGTATCATTGC and reverse-TTGGGCACTTGCACAGAGAT, AR-V7: forward-CCATCTTGTCGTCTTCGGAAATGTTATGAAGC and reverse-TTTGAATGAGGCAAGTCAGCCTTTCTT. The qRT-PCR proceeded as follows: denaturation for 5 min 95° C.; 40 cycles of “20 sec at 95° C. and 15 sec at 60° C.” and at the end of the last cycle, the melting temperature of the products was determined by gradually increasing it from 60° C. to 99° C. CT values from all samples were normalized to two different reference (housekeeping) genes using the mean CT value of the GAPDH and YWHAZ (reference genes). Next the values are normalized to the untreated control (vehicle/DMSO).

The test system of assay [3] is AR-V7 mRNA. The experiment in a line: Androgen receptor RNA level expression (qRT-PCR) in 22Rv1: AR-V7. Conditions: 22Rv1, 1 μM, 48 h; for mrna remaining at 1 µM: Homo sapiens, normalized to untreated control (vehicle/DMSO). The protocol: as §3
The subject of assay [4] is IL-17A. The assay can be described thus: Cytokine assay, human PBMC stimulated with PHA: IL-17A. The conditions noted are these: PHA-activated, 48 hours, read-out: IL-17A inhibition (IC50 range). The protocol: (§4) Peripheral blood mononuclear cells (PBMC) from healthy human donors were purified using Accuspin™ System-Histopaque-1077 (Sigma) according to the protocol recommended by the manufacturer. Purified PBMC were then washed twice with phosphate-buffered saline (PBS) and resuspended in RPMI1640 culture medium supplemented with 10% dialyzed heat inactivated fetal calf serum, 1.5 mM L-glutamine, 100 U penicillin/mL and […] streptomycin/mL (all from PAN Biotech, Aidenbach, Germany). For stimulation, PBMC were seeded at 1×10^5 cells/well, activated with 2 gg/mL phytohaemagglutinin (PHA, Sigma) and incubated with the test compounds for 48 hours. IL-17A, IL-17F and INFγ were then determined in the culture supernatant using a Luminex BioPlex system, following the manufacturer's instructions (BioRad, Munich, Germany). To determine the IC50, compounds were titrated semilogarithmically.
(§5) Cytokines were determined in the aforementioned culture supernatant using the following methods: IL-17A was measured using the human homodimer IL-17A ELISA Ready Set Go Kit from cBioscience (Frankfurt, Germany); IL-17F using the human IL-17F ELI-Pair from Holzel Diagnostica GmbH (K51n, Germany); and IFNγ using the OptEIA human IFN-g ELISA from BD Bioscience (Heidelberg, Germany), all following the manufacturer's instructions.

For assay [5], the system named is IL-17F. The assay can be described thus: Cytokine assay, human PBMC stimulated with PHA: IL-17F. Conditions: PHA-activated, 48 hours, read-out: IL-17F inhibition (IC50 range). The protocol:
as §4, §5

For assay [6], the system named is FKBP5 mRNA. The assay can be described thus: Expression of AR target genes (qRT-PCR) in 22Rv1: FKBP5. Conditions: Homo sapiens; 22Rv1, 1 μM, 48h; relative to vehicle control (DMSO). The protocol:
as §1, §2

For assay [7], the system named is KLK2 mRNA. The assay can be described thus: Expression of AR target genes (qRT-PCR) in 22Rv1: KLK2. The conditions noted are these: 22Rv1, 1 μM; for KLK2 mRNA level expression: 48 h; for mrna remaining at 1 µM: Homo sapiens, 48h, relative to vehicle control (DMSO). The protocol: as §1, §2
Assay [8] has as its system IFNγ. The experiment in a line: Cytokine assay, human PBMC stimulated with PHA: IFNγ. The conditions noted are these: PHA-activated, 48 hours, read-out: IFNγ inhibition (IC50 range). The protocol:
as §4, §5

Assay [9] deals with T1, RORγt (Homo sapiens, UniProt P51449).
T1 sequence (P51449 269-518 limits assumed): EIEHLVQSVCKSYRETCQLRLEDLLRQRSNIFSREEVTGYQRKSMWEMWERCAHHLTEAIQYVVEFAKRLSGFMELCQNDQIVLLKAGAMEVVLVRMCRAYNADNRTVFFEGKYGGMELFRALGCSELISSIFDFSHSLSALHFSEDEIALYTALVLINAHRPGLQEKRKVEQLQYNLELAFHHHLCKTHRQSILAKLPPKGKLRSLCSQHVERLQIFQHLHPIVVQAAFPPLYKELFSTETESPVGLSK
The experiment in a line: RORγt inhibition, Indigo Biosciences Human RAR-related Orphan Receptor, Gamma Reporter Assay System. Conditions: luciferase reporter cells, 22-24 h incubation; read-out: IC50 range, RORγt assay. The protocol: The in vitro inhibition of RORγt was measured using Indigo Biosciences Human RAR-related Orphan Receptor, Gamma Reporter Assay System (Product #11304001-32) as described in the technical manual. In brief, 200 μL of Reporter Cells is dispensed into wells of the assay plate and preincubated for 4-6 h. Following the pre-incubation period, culture media are discarded and 200 μL/well of the prepared 1×-concentration treatment media are added. Following 22-24 h incubation, treatment media are discarded and Luciferase Detection Reagent is added. The intensity of light emission (in units of ‘Relative Light Units’; RLU) from each assay well is quantified using a plate-reading luminometer. Average values of RLU were determined for each treatment concentration. Non-linear regression analyses were performed and IC50 values determined using GraphPad Prism software. Provided inverse-agonists ursolic acid served as positive control.

For `C[C@H](O)Cn1ncc(-c2onc(-c3cccc(C(=O)N4CCCC4)c3Cl)c2-c2ccncn2)c1C(F)(F)F` [2/3], the mrna remaining at 1 µM worked out at 35.7% in [1]; 43.4% in assay [2]; 25.5% in assay [3]; 24.5% in assay [6]; 41.1% in [7]. Moreover, in [2], the “full length AR (AR-FL) mRNA expression” value is listed as “strong reduction”. Further, the “AR-V7 mRNA expression” value in assay [3] is “strong reduction”. Moreover, the IC50 in assay [4], in assay [5] and in [8] was 25 to 100 nM throughout. Moreover, the “KLK2 mRNA level expression” value in assay [7] is “strong inhibition”.
Regarding `C[C@]1(O)C[C@@H](n2ncc(-c3onc(-c4c(F)cccc4Cl)c3-c3ccncn3)c2C(F)(F)F)C1` [2/4], the mrna remaining at 1 µM in assay [1] came out at 35.9%; in assay [2], 43.5%; in assay [3] it was 25.4%; in assay [6] it was 29.8%; in [7] it was 42.6%. Besides, in [2], the “full length AR (AR-FL) mRNA expression” value was “strong reduction”. Moreover, the “AR-V7 mRNA expression” value in [3] is listed as “strong reduction”. Moreover, the figures for the IC50 in [4], in assay [5] and in assay [8] were 25 to 100 nM, below 25 nM and below 25 nM, respectively. Also, the “KLK2 mRNA level expression” value in assay [7] is recorded as “strong inhibition”.
Turning to `CC(C)(O)CCn1ncc(-c2onc(-c3cccc(OCCN4CCOCC4)c3Cl)c2-c2ncccn2)c1C(F)(F)F` [2/7], the mrna remaining at 1 µM in assay [1] worked out at 30.5%; in assay [2] it was 42.5%; in assay [3], 22.8%; in [6], 27.5%; in assay [7] it was 43.6%. Further, the “full length AR (AR-FL) mRNA expression” value in assay [2] is given as “strong reduction”. Besides, in assay [3], the “AR-V7 mRNA expression” value is given as “strong reduction”. Further, the IC50 in assay [4] was 25 to 100 nM; in [5], below 25 nM; in assay [9], 100 to 1000 nM; in [8], below 25 nM. In addition, the “KLK2 mRNA level expression” value in assay [7] was “strong inhibition”.
Regarding `COc1cccc(-c2noc(-c3cnn([C@H]4C[C@@](C)(O)C4)c3C(F)(F)F)c2COC2CC2)c1Cl` [2/9], the mrna remaining at 1 µM is 48.2% in assay [1]; 49.9% in [2]; 29.3% in assay [3]; 31.5% in [6]; 41.2% in assay [7]. Also, the “full length AR (AR-FL) mRNA expression” value in assay [2] is given as “strong reduction”. The “AR-V7 mRNA expression” value in assay [3] was “strong reduction”. Also, the IC50 in assay [4], in assay [5] and in [8] was below 25 nM each time.
Consider `CCOC(=O)c1c(-c2cccc(OC)c2Cl)noc1-c1cnn(CCC(C)(C)O)c1C(F)(F)F` [2/10], for which the mrna remaining at 1 µM was found to be 32.2% in assay [1]; 53.1% in [2]; 22.7% in assay [3]; 27.7% in assay [6]; 37.9% in assay [7]. Also, in assay [2], the “full length AR (AR-FL) mRNA expression” value is given as “strong reduction”. Further, the “AR-V7 mRNA expression” value in assay [3] is “strong reduction”. Also, the IC50 in assay [4], in assay [5] and in assay [8] was below 25 nM throughout. In assay [7], the “KLK2 mRNA level expression” value is recorded as “strong inhibition”.
Turning to `CC(C)(O)CCn1ncc(-c2onc(-c3c(F)cccc3Cl)c2-c2ncccn2)c1C(F)F` [Example 1/2, 4-(4-(3-(2-Chloro-6-fluorophenyl)-4-(pyrimidin-2-yl)isoxazol-5-yl)-5-(difluoromethyl)-1H-pyrazol-1-yl)-2-methylbutan-2-ol], in assay [2], the “full length AR (AR-FL) mRNA expression” value was “strong reduction” and the mrna remaining at 1 µM amounted to 52.4%. In addition, in assay [3], the “AR-V7 mRNA expression” value is “strong reduction” and the mrna remaining at 1 µM was 50.9%. Further, in assay [9], the IC50 was 10 to 100 nM.
On to `Fc1cccc(Cl)c1-c1noc(-c2cnn(-c3cccc(Cl)c3)c2C(F)(F)F)c1COC1CC1` [Example 2, 3-(2-Chloro-6-fluorophenyl)-5-(1-(3-chlorophenyl)-5-(trifluoromethyl)-1H-pyrazol-4-yl)-4-(cyclopropoxymethyl)isoxazole], for which the IC50 in assay [9] was below 10 nM.
For `C[C@H](O)Cn1ncc(-c2onc(-c3c(F)cccc3Cl)c2-c2nccs2)c1C(F)(F)F` [Example 2/1], the mrna remaining at 1 µM in [1] was 39.9%; in assay [2] it was 42.4%; in [3] it was 22.8%; in assay [6] it was 34.4%; in assay [7] it was 56.9%. Also, the “full length AR (AR-FL) mRNA expression” value in assay [2] was “strong reduction”. Also, in assay [3], the “AR-V7 mRNA expression” value is listed as “strong reduction”. Besides, the IC50 in [4], in assay [5] and in [8] was below 25 nM throughout.
